Experimental data: patent US10420341B2, “Herbicidal phenylpyrimidines” (BASF SE, priority 2015, dated 2019)

Key:
[1] = test system: APESV; assay: greenhouse pre-emergence herbicidal test; type: in vivo, Apera spica-venti; conditions: pre-emergence method, scale from 0 to 100
From the text: (§1) The seeds of the test plants were sown separately for each species. For the pre-emergence treatment, the active ingredients, which had been suspended or emulsified in water, were applied directly after sowing by means of finely distributing nozzles. The containers were irrigated gently to promote germination and growth and subsequently covered with transparent plastic hoods until the plants had rooted. This cover caused uniform germination of the test plants, unless this had been impaired by the active ingredients. Depending on the species, the plants were kept at 10-25° C. or 20-35° C., respectively. The test period extended over 2 to 4 weeks. During this time, the plants were tended, and their response to the individual treatments was evaluated. Evaluation was carried out using a scale from 0 to 100. 100 means no emergence of the plants, or complete destruction of at least the aerial moieties, and 0 means no damage, or normal course of growth. […] The plants used in the greenhouse experiments were of the following species: [table]

[2] = test system: AVEFA; assay: greenhouse post-emergence herbicidal test; type: in vivo, Avena fatua; conditions: post-emergence method, scale from 0 to 100
From the text: (§2) The seeds of the test plants were sown separately for each species. For the post-emergence treatment, the test plants were first grown to a height of 3 to 15 cm, depending on the plant habit, and only then treated with the active ingredients which had been suspended or emulsified in water. For this purpose, the test plants were either sown directly and grown in the same containers, or they were first grown separately as seedlings and transplanted into the test containers a few days prior to treatment. Depending on the species, the plants were kept at 10-25° C. or 20-35° C., respectively. The test period extended over 2 to 4 weeks. During this time, the plants were tended, and their response to the individual treatments was evaluated. Evaluation was carried out using a scale from 0 to 100. 100 means no emergence of the plants, or complete destruction of at least the aerial moieties, and 0 means no damage, or normal course of growth. […] The plants used in the greenhouse experiments were of the following species: [table]

[3] = test system: ECHCG; assay: greenhouse pre-emergence herbicidal test; type: in vivo, Echinocloa crus-galli; conditions: pre-emergence method, scale from 0 to 100
From the text: as §1

[4] = test system: ALOMY; assay: greenhouse post-emergence herbicidal test; type: in vivo, Alopercurus myosuroides; conditions: post-emergence method, scale from 0 to 100
From the text: as §2

[5] = test system: ECHCG; assay: greenhouse post-emergence herbicidal test; type: in vivo, Echinocloa crus-galli; conditions: post-emergence method, scale from 0 to 100
From the text: as §2

Row | Structure (SMILES) | herbicidal activity against APESV ([1]; application rate 500 g/ha) | herbicidal activity against AVEFA ([2]; application rate 500 g/ha) | herbicidal activity against ECHCG ([3]; application rate 500 g/ha) | herbicidal activity against ALOMY ([4]; application rate 500 g/ha) | herbicidal activity against ECHCG ([5]; application rate 500 g/ha) | herbicidal activity against APESV ([1]; application rate 1000 g/ha) | herbicidal activity against AVEFA ([2]; application rate 1000 g/ha) | herbicidal activity against ECHCG ([3]; application rate 1000 g/ha) | herbicidal activity against ECHCG ([5]; application rate 1000 g/ha) | herbicidal activity against ALOMY ([4]; application rate 1000 g/ha)
1 | O=C(NO)c1nc(C2CC2)ncc1-c1ccccc1Cl [example 290] | very good (a very good herbicidal activity is given at values of at least 85) | very good (a very good herbicidal activity is given at values of at least 85) | very good (a very good herbicidal activity is given at values of at least 85) | very good (a very good herbicidal activity is given at values of at least 85) | – | – | – | – | – | –
2 | COC(=O)c1nc(C2CC2)ncc1-c1ccccc1I [example 312] | very good (a very good herbicidal activity is given at values of at least 85) | very good (a very good herbicidal activity is given at values of at least 85) | very good (a very good herbicidal activity is given at values of at least 85) | very good (a very good herbicidal activity is given at values of at least 85) | very good (a very good herbicidal activity is given at values of at least 85) | – | – | – | – | –
3 | O=C(Oc1ccccc1)c1nc(C2CC2)ncc1-c1ccccc1Cl [example 255] | – | – | – | – | – | very good (a very good herbicidal activity is given at values of at least 85) | very good (a very good herbicidal activity is given at values of at least 85) | very good (a very good herbicidal activity is given at values of at least 85) | very good (a very good herbicidal activity is given at values of at least 85) | very good (a very good herbicidal activity is given at values of at least 85)
4 | COC(=O)c1nc(C2CC2)ncc1-c1c(F)cc(F)cc1F [example 193] | very good (a very good herbicidal activity is given at values of at least 85) | very good (a very good herbicidal activity is given at values of at least 85) | very good (a very good herbicidal activity is given at values of at least 85) | very good (a very good herbicidal activity is given at values of at least 85) | – | – | – | – | – | –
5 | O=C(O)c1nc(C2CC2)ncc1-c1c(Cl)cccc1C(F)(F)F [example 304] | – | – | – | – | – | very good (a very good herbicidal activity is given at values of at least 85) | very good (a very good herbicidal activity is given at values of at least 85) | – | very good (a very good herbicidal activity is given at values of at least 85) | very good (a very good herbicidal activity is given at values of at least 85)
6 | O=C(O)c1nc(C2CC2)ncc1-c1ccc(F)cc1F [example 133] | very good (a very good herbicidal activity is given at values of at least 85) | very good (a very good herbicidal activity is given at values of at least 85) | very good (a very good herbicidal activity is given at values of at least 85) | very good (a very good herbicidal activity is given at values of at least 85) | – | – | – | – | – | –
7 | COC(=O)c1nc(C2CC2)ncc1-c1c(F)cc(F)cc1Br [example 214] | – | – | – | – | – | very good (a very good herbicidal activity is given at values of at least 85) | very good (a very good herbicidal activity is given at values of at least 85) | very good (a very good herbicidal activity is given at values of at least 85) | – | very good (a very good herbicidal activity is given at values of at least 85)
8 | COc1ccc(OC(=O)c2nc(C3CC3)ncc2-c2ccccc2Cl)cc1 [example 259] | very good (a very good herbicidal activity is given at values of at least 85) | very good (a very good herbicidal activity is given at values of at least 85) | very good (a very good herbicidal activity is given at values of at least 85) | very good (a very good herbicidal activity is given at values of at least 85) | good (A good herbicidal activity is given at values of at least 70) | – | – | – | – | –
9 | COC(=O)c1nc(C2CC2)ncc1-c1ccc(F)cc1F [example 192] | very good (a very good herbicidal activity is given at values of at least 85) | very good (a very good herbicidal activity is given at values of at least 85) | very good (a very good herbicidal activity is given at values of at least 85) | very good (a very good herbicidal activity is given at values of at least 85) | – | – | – | – | – | –
10 | COc1cccc(Cl)c1-c1cnc(C2CC2)nc1C(=O)O [example 178] | very good (a very good herbicidal activity is given at values of at least 85) | good (A good herbicidal activity is given at values of at least 70) | very good (a very good herbicidal activity is given at values of at least 85) | good (A good herbicidal activity is given at values of at least 70) | – | – | – | – | – | –
11 | O=C(O)c1nc(C2CC2)ncc1-c1ccccc1I [example 311] | very good (a very good herbicidal activity is given at values of at least 85) | very good (a very good herbicidal activity is given at values of at least 85) | very good (a very good herbicidal activity is given at values of at least 85) | very good (a very good herbicidal activity is given at values of at least 85) | very good (a very good herbicidal activity is given at values of at least 85) | – | – | – | – | –
12 | O=C(OCc1ccccc1)c1nc(C2CC2)ncc1-c1ccccc1Cl [example 254] | – | – | – | – | – | very good (a very good herbicidal activity is given at values of at least 85) | very good (a very good herbicidal activity is given at values of at least 85) | very good (a very good herbicidal activity is given at values of at least 85) | very good (a very good herbicidal activity is given at values of at least 85) | very good (a very good herbicidal activity is given at values of at least 85)
13 | O=C(O)c1nc(C2CC2)ncc1-c1ccccc1Cl [example 141] | very good (a very good herbicidal activity is given at values of at least 85) | very good (a very good herbicidal activity is given at values of at least 85) | very good (a very good herbicidal activity is given at values of at least 85) | very good (a very good herbicidal activity is given at values of at least 85) | – | – | – | – | – | –
14 | O=C(O)c1nc(C2CC2)ncc1-c1c(F)cc(F)cc1F [example 134] | very good (a very good herbicidal activity is given at values of at least 85) | very good (a very good herbicidal activity is given at values of at least 85) | very good (a very good herbicidal activity is given at values of at least 85) | very good (a very good herbicidal activity is given at values of at least 85) | – | – | – | – | – | –
15 | C[Si](C)(C)CCOC(=O)c1nc(C2CC2)ncc1-c1ccccc1Cl [example 258] | – | – | – | – | – | – | very good (a very good herbicidal activity is given at values of at least 85) | very good (a very good herbicidal activity is given at values of at least 85) | very good (a very good herbicidal activity is given at values of at least 85) | very good (a very good herbicidal activity is given at values of at least 85)
16 | COC(=O)c1nc(C2CC2)ncc1-c1cc(F)c(F)cc1Br [example 215] | very good (a very good herbicidal activity is given at values of at least 85) | very good (a very good herbicidal activity is given at values of at least 85) | very good (a very good herbicidal activity is given at values of at least 85) | very good (a very good herbicidal activity is given at values of at least 85) | – | – | – | – | – | –
